# Assay results taken from US10738028B2, “Spiro three-membered ring, spiro five-membered ring peptide deformylase inhibitor and use thereof in antibacteria and anti-tumor” (priority 2016, dated 2020).
# Like-named read-outs stand apart in the source and are kept apart here.
# Assays:
# Type in all cases: cell-based
# [1] = system: Enterococcus faecalis (EFA); assay: MIC, two-fold agar dilution (CLSI), clinical isolates
# Procedure, shortened: (§1)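 Samples are serially diluted two-fold in agar following CLSI guidance. Plates are then inoculated with the tested strains. The lowest inhibiting concentration is recorded as MIC.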
# [2] = system: Enterococcus faecium (EFM); assay: as above
# Procedure, shortened: as §1
# [3] = system: Escherichia coli (including ESBLs, non-ESBLs); assay: as above; details: for Anti-bacterial activity (MIC), strain ECO+ 15-1: clinical isolate ECO+ 15-1; for Anti-bacterial activity (MIC), strain ECO+ 15-2: clinical isolate ECO+ 15-2; for Anti-bacterial activity (MIC), strain ECO+ 15-3: clinical isolate ECO+ 15-3; for Anti-bacterial activity (MIC), strain ECO+ 15-4: clinical isolate ECO+ 15-4; for Anti-bacterial activity (MIC), strain ECO− 15-1: clinical isolate ECO− 15-1; for Anti-bacterial activity (MIC), strain ECO− 15-2: clinical isolate ECO− 15-2; for Anti-bacterial activity (MIC), strain ECO− 15-3: clinical isolate ECO− 15-3; for Anti-bacterial activity (MIC), strain ECO− 15-4: clinical isolate ECO− 15-4
# Procedure, shortened: as §1
# [4] = system: Moraxella catarrhalis (BCA); assay: as above
# Procedure, shortened: as §1
# [5] = system: Streptococcus pneoumoniae (SPN); assay: as above
# Procedure, shortened: as §1
# [6] = system: methicillin-resistant Staphylococcus aureus (MRSA); assay: as above; details: for Anti-bacterial activity (MIC), strain MRSA 15-1: clinical isolate MRSA 15-1; for Anti-bacterial activity (MIC), strain MRSA 15-2: clinical isolate MRSA 15-2; for Anti-bacterial activity (MIC), strain MRSA 15-3: clinical isolate MRSA 15-3; for Anti-bacterial activity (MIC), strain MRSA 15-4: clinical isolate MRSA 15-4
# Procedure, shortened: as §1
# [7] = system: methicillin-resistant Staphylococcus epidermidis (MRSE); assay: as above; details: for Anti-bacterial activity (MIC), strain MRSE 15-1: clinical isolate MRSE 15-1; for Anti-bacterial activity (MIC), strain MRSE 15-2: clinical isolate MRSE 15-2; for Anti-bacterial activity (MIC), strain MRSE 15-3: clinical isolate MRSE 15-3; for Anti-bacterial activity (MIC), strain MRSE 15-7: clinical isolate MRSE 15-7
# Procedure, shortened: as §1
# [8] = system: methicillin-sensitive Staphylococcus aureus (MSSA); assay: as above; details: for Anti-bacterial activity (MIC), strain MSSA 15-3: clinical isolate MSSA 15-3; for Anti-bacterial activity (MIC), strain MSSA 15-4: clinical isolate MSSA 15-4; for Anti-bacterial activity (MIC), strain MSSA 15-5: clinical isolate MSSA 15-5; for Anti-bacterial activity (MIC), strain MSSA 15-6: clinical isolate MSSA 15-6
# Procedure, shortened: as §1
# [9] = system: methicillin-sensitive Staphylococcus epidermidis (MSSE); assay: as above; details: for Anti-bacterial activity (MIC), strain MSSE 15-3: clinical isolate MSSE 15-3; for Anti-bacterial activity (MIC), strain MSSE 15-4: clinical isolate MSSE 15-4; for Anti-bacterial activity (MIC), strain MSSE 15-5: clinical isolate MSSE 15-5; for Anti-bacterial activity (MIC), strain MSSE 15-6: clinical isolate MSSE 15-6
# Procedure, shortened: as §1
# [10] = system: HCT-116 colorectal cancer cell line; assay: CCK-8 proliferation inhibition; details: concentration of 30 μM, 72 hours, CCK-8; for inhibition at 30 µM: Homo sapiens, HCT-116, 72 h
# Procedure, shortened: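 HCT-116 cells, seeded at 2000 cells/well in McCoy's 5A with 10% newborn bovine serum, were cultured overnight at 37° C., 5% CO2, then exposed to compound dilutions in medium for 72 hours. Viability was read with 1:10 diluted CCK-8; controls received 1‰ DMSO.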
# [11] = system: A549 lung cancer cell line; assay: CCK-8 proliferation inhibition; details: concentration of 30 μM; for inhibition at 30 µM: Homo sapiens, A549, 72 h
# Procedure, shortened: (§2)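 Plating at 2000 cells/well, then incubation overnight at 37° C. Next, a range of compound concentrations for 72 hours (control 1‰ DMSO). Finally, medium decanted and CCK-8 diluted 1:10 added.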
# [12] = system: BEL-7402 liver cancer cell line; assay: CCK-8 proliferation inhibition; details: concentration of 30 μM; for Inhibition of proliferation, Liver cancer BEL-7402: 72 hours, 30 µM
# Procedure, shortened: as §2
# [13] = system: MGC-803 gastric cancer cell line; assay: CCK-8 proliferation inhibition; details: concentration of 30 μM; for inhibition at 30 µM: Homo sapiens, MGC-803, 72 h
# Procedure, shortened: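 Cells were seeded at 2000 cells/well and cultured overnight at 37° C, 5% CO2, then exposed for 72 hours to compounds diluted from DMSO stocks. Controls received 1‰ DMSO. CCK-8 (1:10 diluted) replaced the medium. MGC-803 and Jurkat were grown in 1640, PC3 in F12, and MCF-7 in DMEM high glucose, each with 10% newborn bovine serum.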
smiles,measurement,setting,value
O=C(C[C@@H](CC1CCCC1)C(=O)N1CC2(CC2)C[C@H]1C(=O)Nc1cccnn1)NO [Example 66],Anti-bacterial activity (MIC),[1]; strain EFA 15-1,4 µg/mL
same,Anti-bacterial activity (MIC),[1]; strain EFA 15-2,4 µg/mL
same,Anti-bacterial activity (MIC),[1]; strain EFA 15-3,2 µg/mL
same,Anti-bacterial activity (MIC),[1]; strain EFA 15-4,16 µg/mL
same,Anti-bacterial activity (MIC),[1]; strain EFA 15-5,16 µg/mL
same,Anti-bacterial activity (MIC),[1]; strain EFA 15-6,16 µg/mL
same,Anti-bacterial activity (MIC),[1]; strain EFA 15-9,16 µg/mL
same,Anti-bacterial activity (MIC),[2]; strain EFM 15-1,16 µg/mL
same,Anti-bacterial activity (MIC),[2]; strain EFM 15-2,16 µg/mL
same,Anti-bacterial activity (MIC),[2]; strain EFM 15-3,16 µg/mL
same,Anti-bacterial activity (MIC),[2]; strain EFM 15-4,1 µg/mL
same,Anti-bacterial activity (MIC),[2]; strain EFM 15-5,0.125 µg/mL
same,Anti-bacterial activity (MIC),[2]; strain EFM 15-6,0.5 µg/mL
same,"Anti-bacterial activity (MIC), strain ECO+ 15-1",[3],16 µg/mL
same,"Anti-bacterial activity (MIC), strain ECO+ 15-2",[3],32 µg/mL
same,"Anti-bacterial activity (MIC), strain ECO+ 15-3",[3],16 µg/mL
same,"Anti-bacterial activity (MIC), strain ECO+ 15-4",[3],16 µg/mL
same,"Anti-bacterial activity (MIC), strain ECO− 15-1",[3],16 µg/mL
same,"Anti-bacterial activity (MIC), strain ECO− 15-2",[3],16 µg/mL
same,"Anti-bacterial activity (MIC), strain ECO− 15-3",[3],32 µg/mL
same,"Anti-bacterial activity (MIC), strain ECO− 15-4",[3],8 µg/mL
same,Anti-bacterial activity (MIC),[4]; strain BCA 14-1,2 µg/mL
same,Anti-bacterial activity (MIC),[4]; strain BCA 14-4,2 µg/mL
same,Anti-bacterial activity (MIC),[4]; strain BCA 14-5,2 µg/mL
same,Anti-bacterial activity (MIC),[4]; strain BCA 14-6,2 µg/mL
same,Anti-bacterial activity (MIC),[4]; strain BCA 14-7,2 µg/mL
same,Anti-bacterial activity (MIC),[4]; strain BCA 14-8,2 µg/mL
same,Anti-bacterial activity (MIC),[4]; strain BCA 14-10,0.5 µg/mL
same,Anti-bacterial activity (MIC),[5]; strain SPN 16-2,0.25 µg/mL
same,Anti-bacterial activity (MIC),[5]; strain SPN 16-4,0.25 µg/mL
same,"Anti-bacterial activity (MIC), strain MRSA 15-1",[6],0.5 µg/mL
same,"Anti-bacterial activity (MIC), strain MRSA 15-2",[6],2 µg/mL
same,"Anti-bacterial activity (MIC), strain MRSA 15-3",[6],0.5 µg/mL
same,"Anti-bacterial activity (MIC), strain MRSA 15-4",[6],1 µg/mL
same,"Anti-bacterial activity (MIC), strain MRSE 15-1",[7],0.25 µg/mL
same,"Anti-bacterial activity (MIC), strain MRSE 15-2",[7],1 µg/mL
same,"Anti-bacterial activity (MIC), strain MRSE 15-3",[7],1 µg/mL
same,"Anti-bacterial activity (MIC), strain MRSE 15-7",[7],1 µg/mL
same,"Anti-bacterial activity (MIC), strain MSSA 15-3",[8],1 µg/mL
same,"Anti-bacterial activity (MIC), strain MSSA 15-4",[8],0.5 µg/mL
same,"Anti-bacterial activity (MIC), strain MSSA 15-5",[8],0.5 µg/mL
same,"Anti-bacterial activity (MIC), strain MSSA 15-6",[8],32 µg/mL
same,"Anti-bacterial activity (MIC), strain MSSE 15-3",[9],0.06 µg/mL
same,"Anti-bacterial activity (MIC), strain MSSE 15-4",[9],1 µg/mL
same,"Anti-bacterial activity (MIC), strain MSSE 15-5",[9],1 µg/mL
same,"Anti-bacterial activity (MIC), strain MSSE 15-6",[9],0.06 µg/mL
same,HCT116 inhibition rate/%,[10]; 30 µM,75%
same,inhibition at 30 µM,[11],> 50%
same,"Inhibition of proliferation, Lung cancer A549","[11]; 72 hours, 30 µM",56%
same,"Inhibition of proliferation, Liver cancer BEL-7402",[12],74%
same,inhibition at 30 µM,[13],> 50%
same,"Inhibition of proliferation, Gastric cancer MGC-803","[13]; 72 hours, 30 µM",60%
O=C(C[C@@H](CC1CCCC1)C(=O)N1CC2(CC2)C[C@H]1C(=O)Nc1ncccc1F)NO [Example 67],Anti-bacterial activity (MIC),[1]; strain EFA 15-1,32 µg/mL
same,Anti-bacterial activity (MIC),[1]; strain EFA 15-2,32 µg/mL
same,Anti-bacterial activity (MIC),[1]; strain EFA 15-3,32 µg/mL
same,Anti-bacterial activity (MIC),[1]; strain EFA 15-4,32 µg/mL
same,Anti-bacterial activity (MIC),[1]; strain EFA 15-5,32 µg/mL
same,Anti-bacterial activity (MIC),[1]; strain EFA 15-6,32 µg/mL
same,Anti-bacterial activity (MIC),[1]; strain EFA 15-9,8 µg/mL
same,Anti-bacterial activity (MIC),[2]; strain EFM 15-1,32 µg/mL
same,Anti-bacterial activity (MIC),[2]; strain EFM 15-2,> 32 µg/mL
same,Anti-bacterial activity (MIC),[2]; strain EFM 15-3,> 32 µg/mL
same,Anti-bacterial activity (MIC),[2]; strain EFM 15-4,2 µg/mL
same,Anti-bacterial activity (MIC),[2]; strain EFM 15-5,0.25 µg/mL
same,Anti-bacterial activity (MIC),[2]; strain EFM 15-6,0.25 µg/mL
same,"Anti-bacterial activity (MIC), strain ECO+ 15-1",[3],16 µg/mL
same,"Anti-bacterial activity (MIC), strain ECO+ 15-2",[3],16 µg/mL
same,"Anti-bacterial activity (MIC), strain ECO+ 15-3",[3],32 µg/mL
same,"Anti-bacterial activity (MIC), strain ECO+ 15-4",[3],32 µg/mL
same,"Anti-bacterial activity (MIC), strain ECO− 15-1",[3],32 µg/mL
same,"Anti-bacterial activity (MIC), strain ECO− 15-2",[3],32 µg/mL
same,"Anti-bacterial activity (MIC), strain ECO− 15-3",[3],32 µg/mL
same,"Anti-bacterial activity (MIC), strain ECO− 15-4",[3],32 µg/mL
same,Anti-bacterial activity (MIC),[4]; strain BCA 14-1,2 µg/mL
same,Anti-bacterial activity (MIC),[4]; strain BCA 14-4,2 µg/mL
same,Anti-bacterial activity (MIC),[4]; strain BCA 14-5,2 µg/mL
same,Anti-bacterial activity (MIC),[4]; strain BCA 14-6,2 µg/mL
same,Anti-bacterial activity (MIC),[4]; strain BCA 14-7,2 µg/mL
same,Anti-bacterial activity (MIC),[4]; strain BCA 14-8,2 µg/mL
same,Anti-bacterial activity (MIC),[4]; strain BCA 14-10,0.5 µg/mL
same,Anti-bacterial activity (MIC),[5]; strain SPN 16-2,0.25 µg/mL
same,Anti-bacterial activity (MIC),[5]; strain SPN 16-4,0.25 µg/mL
same,"Anti-bacterial activity (MIC), strain MRSA 15-1",[6],0.25 µg/mL
same,"Anti-bacterial activity (MIC), strain MRSA 15-2",[6],0.5 µg/mL
same,"Anti-bacterial activity (MIC), strain MRSA 15-3",[6],0.25 µg/mL
same,"Anti-bacterial activity (MIC), strain MRSA 15-4",[6],0.5 µg/mL
same,"Anti-bacterial activity (MIC), strain MRSE 15-1",[7],0.5 µg/mL
same,"Anti-bacterial activity (MIC), strain MRSE 15-2",[7],0.5 µg/mL
same,"Anti-bacterial activity (MIC), strain MRSE 15-3",[7],0.5 µg/mL
same,"Anti-bacterial activity (MIC), strain MRSE 15-7",[7],0.5 µg/mL
same,"Anti-bacterial activity (MIC), strain MSSA 15-3",[8],0.5 µg/mL
same,"Anti-bacterial activity (MIC), strain MSSA 15-4",[8],0.125 µg/mL
same,"Anti-bacterial activity (MIC), strain MSSA 15-5",[8],0.125 µg/mL
same,"Anti-bacterial activity (MIC), strain MSSA 15-6",[8],32 µg/mL
same,"Anti-bacterial activity (MIC), strain MSSE 15-3",[9],0.25 µg/mL
same,"Anti-bacterial activity (MIC), strain MSSE 15-4",[9],0.5 µg/mL
same,"Anti-bacterial activity (MIC), strain MSSE 15-5",[9],0.5 µg/mL
same,"Anti-bacterial activity (MIC), strain MSSE 15-6",[9],0.125 µg/mL
same,inhibition at 30 µM,"[10]; Table 5, read-out: Inhibition of proliferation, Colorectal cancer HCT116",≥ 30%
same,inhibition at 30 µM,[10]; read-out: HCT116 inhibition rate/%,44%
same,inhibition at 30 µM,[11],36%
same,inhibition at 30 µM,"[12]; Homo sapiens, Bel-7402, 72 h",> 50%
same,"Inhibition of proliferation, Liver cancer BEL-7402",[12],57%
same,inhibition at 30 µM,[13],39%
